Test results taken from patent US20210015098A1, “MOLECULES HAVING PESTICIDAL UTILITY, AND INTERMEDIATES, COMPOSITIONS, AND PROCESSES, RELATED THERETO” (DOW AGROSCIENCES LLC, priority 2018, published 2021).

How the values were obtained:
Assay type in all cases: in vivo
[1] = test system: Beet Armyworm (Spodoptera exigua, LAPHEG); test: Bioassays on Beet Armyworm (BAW), 128-well diet tray assay; settings: for pest or weed control at 50 µg/cm2: Beet Armyworm, Table ABC Biological Results, read-out: BAW (rating)
Method in brief: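 Diet-overlay assay: 50 μg/cm^2 compound applied in 90:10 acetone-water to artificial diet, allowed to dry, then infested with 1–5 L2 larvae/well; 8 wells/compound; covered, vented; 25° C., 14:10 L:D, 5–7 d; % mortality per well, averaged.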

[2] = test system: Cabbage Looper (Trichoplusia ni, TRIPNI); test: Bioassays on Cabbage Looper (CL), 128-well diet tray assay; settings: for pest or weed control at 50 µg/cm2: Cabbage Looper, Table ABC Biological Results, read-out: CL (rating)
Method in brief: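 Test molecule was dissolved in 90:10 acetone-water, applied to artificial diet at 50 μg/cm^2 and allowed to dry. Second-instar larvae were then added, one to five per well, and trays held at 25° C for five to seven days before mortality was scored and averaged.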

[3] = test system: Green Peach Aphid (Myzus persicae, MYZUPE); test: Bioassays on Green Peach Aphid (GPA), foliar spray on cabbage seedlings; settings: for GPA (rating): Green Peach Aphid, Table ABC Biological Results
Procedure: Certain molecules disclosed in this document were tested against GPA using procedures described in the following example. In the reporting of the results, the “GPA & YFM Rating Table” was used (See Table Section).
Cabbage seedlings grown in 3-inch pots, with 2-3 small (3-5 cm) true leaves, were used as test substrate. The seedlings were infested with 20-50 GPA (wingless adult and nymph stages) one day prior to chemical application. Four pots with individual seedlings were used for each treatment. Test molecules (2 mg) were dissolved in 2 mL of acetone/methanol (1:1) solvent, forming stock solutions of 1000 ppm test molecule. The stock solutions were diluted 5× with 0.025% Tween 20 in water to obtain the solution at 200 ppm test molecule. A hand-held aspirator-type sprayer was used for spraying a solution to both sides of […] leaves until runoff. Reference plants (solvent check) were sprayed with the diluent only containing 20% by volume of acetone/methanol (1:1) solvent. Treated plants were held in a holding room for three days at approximately 25° C. and ambient relative humidity (RH) prior to grading. Evaluation was conducted by counting the number of live aphids per plant under a microscope. Percent control was measured using Abbott's correction formula (W. S. Abbott, “A Method of Computing the Effectiveness of an Insecticide” J. Econ. Entomol. 18 (1925), pp. 265-267) as follows. Corrected % Control=100*(X−Y)/X where X=No. of live aphids on solvent check plants and Y=No. of live aphids on treated plants. The results are indicated in the table entitled “Table ABC: Biological Results” (See Table Section).

[4] = test system: Yellow Fever Mosquito (Aedes aegypti, AEDSAE); settings: for YFM (rating): Yellow Fever Mosquito, Table ABC Biological Results
Procedure: Certain molecules disclosed in this document were tested against YFM using procedures described in the following paragraph. In the reporting of the results, the “GPA & YFM Rating Table” was used (See Table Section).
Master plates containing 400 μg of a molecule dissolved in 100 μL of dimethyl sulfoxide (DMSO) (equivalent to a 4000 ppm solution) are used. A master plate of assembled molecules contains 15 μL per well. To this plate, 135 μL of a 90:10 water/acetone mixture is added to each well. A robot (Biomek® NXP Laboratory Automation Workstation) is programmed to dispense 15 μL aspirations from the master plate into an empty 96-well shallow plate (“daughter” plate). There are 6 reps (“daughter” plates) created per master. The created “daughter” plates are then immediately infested with YFM larvae.
The day before plates are to be treated, mosquito eggs are placed in Millipore water containing liver powder to begin hatching (4 g into 400 mL). After the “daughter” plates are created using the robot, they are infested with 220 μL of the liver powder/larval mosquito mixture (about 1 day-old larvae). After plates are infested with mosquito larvae, a non-evaporative lid is used to cover the plate to reduce drying. Plates are held at room temperature for 3 days prior to grading. After 3 days, each well is observed and scored based on mortality. The results are indicated in the table entitled “Table ABC: Biological Results” (See Table Section).

SMILES	mortality at 50 µg/cm2 ([1]; 168 h, 50 μg/cm^2 on artificial diet, second instar larvae, 25° C., five to seven days, read-out: BAW % Control (or Mortality) rating) [%]	mortality at 50 µg/cm2 ([2]; 168 h, 50 μg/cm^2 on artificial diet, second instar larvae, 25° C., five to seven days, read-out: CL % Control (or Mortality) rating) [%]	mortality at 200 ppm ([3]; Myzus persicae, 72 h, 200 ppm foliar spray on cabbage seedlings, three days, Abbott corrected % control, read-out: GPA % Control (or Mortality) rating) [%]	YFM % Control (or Mortality) rating ([4]; about 1 day-old larvae, 96-well plate, room temperature, 3 days)	pest or weed control at 50 µg/cm2 [1] [%]	pest or weed control at 50 µg/cm2 [2] [%]	GPA (rating) [3]	YFM (rating) [4]
Nc1c(F)ccc(NC(=O)c2cc(NC(=O)[C@H]3[C@H](c4cccc(C(F)(F)F)c4)C3(Cl)Cl)ccc2Cl)c1F [DP6, N-(3-Amino-2,4-difluorophenyl)-2-chloro-5-((1R,3R)-2,2-dichloro-3-(3-(trifluoromethyl)phenyl)cyclopropane-1-carboxamido)benzamide]	50 to 100	50 to 100	80 to 100	B (More than 0-Less than 80)	–	–	–	–
C=CCSCC(=O)Nc1c(F)ccc(NC(=O)c2cc(NC(=O)[C@H]3[C@H](c4ccc(F)c(C(F)(F)F)c4)C3(Cl)Cl)ccc2Cl)c1F [F3, N-(3-(2-(Allylthio)acetamido)-2,4-difluorophenyl)-2-chloro-5-((1R,3R)-2,2-dichloro-3-(4-fluoro-3-(trifluoromethyl)phenyl)cyclopropane-1-carboxamido)benzamide]	–	–	–	–	50 to 100	50 to 100	B (More than 0-Less than 80)	–
CSCCC(=O)Nc1c(F)ccc(NC(=O)c2cc(NC(=O)[C@H]3[C@H](c4ccc(F)c(C(F)(F)F)c4)C3(Cl)Cl)ccc2Cl)c1F [F24, 2-Chloro-5-((1R,3R)-2,2-dichloro-3-(4-fluoro-3-(trifluoromethyl)phenyl)cyclopropane-1-carboxamido)-N-(2,4-difluoro-3-(3-(methylthio)propanamido)phenyl)benzamide]	–	–	–	–	50 to 100	50 to 100	–	A (80-100)
CSCCCC(=O)Nc1c(F)ccc(NC(=O)c2cc(NC(=O)[C@H]3[C@H](c4ccc(F)c(C(F)(F)F)c4)C3(Cl)Cl)ccc2Cl)c1F [F25, 2-Chloro-5-((1R,3R)-2,2-dichloro-3-(4-fluoro-3-(trifluoromethyl)phenyl)cyclopropane-1-carboxamido)-N-(2,4-difluoro-3-(4-(methylthio)butanamido)phenyl)benzamide]	–	–	–	–	50 to 100	50 to 100	–	A (80-100)
O=C(C[S+]([O-])CC(F)(F)F)Nc1c(F)ccc(NC(=O)c2cc(NC(=O)[C@H]3[C@H](c4ccc(F)c(C(F)(F)F)c4)C3(Cl)Cl)ccc2Cl)c1F (stereo partly drawn) [F32, 2-Chloro-5-((1R,3R)-2,2-dichloro-3-(4-fluoro-3-(trifluoromethyl)phenyl)cyclopropane-1-carboxamido)-N-(2,4-difluoro-3-(2-((2,2,2-trifluoroethyl)sulfinyl)acetamido)phenyl)benzamide]	–	–	–	–	50 to 100	50 to 100	–	A (80-100)
CC[S+]([O-])C(C)C(=O)Nc1c(F)ccc(NC(=O)c2cc(NC(=O)[C@H]3[C@H](c4ccc(F)c(C(F)(F)F)c4)C3(Cl)Cl)ccc2Cl)c1F (stereo partly drawn) [F34, 2-chloro-5-((R,3R)-2,2-dichloro-3-(4-fluoro-3-(trifluoromethyl)phenyl)cyclopropane-1-carboxamido)-N-(3-(2-(ethylsulfinyl)propanamido)-2,4-difluorophenyl)benzamide]	–	–	–	–	50 to 100	50 to 100	B (More than 0-Less than 80)	A (80-100)
O=C(CCS(=O)(=O)C(F)(F)F)Nc1c(F)ccc(NC(=O)c2cc(NC(=O)[C@H]3[C@H](c4ccc(F)c(C(F)(F)F)c4)C3(Cl)Cl)ccc2Cl)c1F [F46, 2-Chloro-5-((1R,3R)-2,2-dichloro-3-(4-fluoro-3-(trifluoromethyl)phenyl)cyclopropane-1-carboxamido)-N-(2,4-difluoro-3-(3-((trifluoromethyl)sulfonyl)propanamido)phenyl)benzamide]	–	–	–	–	50 to 100	50 to 100	–	A (80-100)
